The source of these data is patent US20080275073A1, “CRYSTALLINE FORMS AND POLYMORPHS OF N-(3-(DIMETHYLAMINO)PROPYL)-4-(4-(3-FLUORO-4-METHOXYPHENYL) PYRIMIDIN-2-YLAMINO) BENZENESULFONAMIDE AS PHARMACEUTICALLY ACCEPTABLE SALTS” (Wyeth, priority 2007, published 2008).

Structures are written as SMILES.

Data set [1] can be described thus: water solubility of free base and salts of compound 3. Format: physicochemical. Here is the method: (§1) In an exemplary embodiment, the solubility of the free base form of compound 3 in THF, DMSO and DMF was high but the solubility in group 3 solvents, including water for example, was low. For example, acetone is needed to dissolve the free base at 50° C. […] HCl, phosphoric acid, tartaric acid, acetic acid, D-, L-glucoronic acid and succinic acid were used to prepare pharmaceutically acceptable salts of compound 3. One crystalline form of compound 3 as a mono-succinate salt and five crystalline polymorphs of compound 3 as a hemi-succinate salt are provided in the Examples.

The nature of data set [2]: solubility of free base in organic solvents / group 3 solvents. The settings on record: free base form. Type of data set: physicochemical. Here is the method: as §1

Consider `COc1ccc(-c2ccnc(Nc3ccc(S(=O)(=O)NCCCN(C)C)cc3)n2)cc1F.O=C(O)CCC(=O)O` [mono-succinate, N-(3-(dimethylamino)propyl)-4-(4-(3-fluoro-4-methoxyphenyl)pyrimidin-2-ylamino)benzenesulfonamide], for which, in data set [1] (thermodynamic from solid, in water), the solubility was 1100 µg/mL.
As for `COc1ccc(-c2ccnc(Nc3ccc(S(=O)(=O)NCCCN(C)C)cc3)n2)cc1F` [compound 3], in data set [1] (free base, thermogravimeteric method), the Solubility in water entry is “not detectable”. Besides, the “solubility in DMF” value in data set [2] (DMF) is given as “high”. Besides, the “solubility in DMSO” value in data set [2] (DMSO) is on record as “high”. Also, in data set [2] (THF), the “solubility in THF” value is “high”. Moreover, the “solubility in group 3 solvents, including water” value in data set [2] (group 3 solvents, including water) is recorded as “low”.
